Assay results as given in patent US20230159509A1 (Amathus Therapeutics, Inc., priority 2020, published 2023).
One block for each compound: values may come before it.

Legend:
TRAP1 enzyme [1] = target: T1, TRAP1 enzyme (Homo sapiens, UniProt Q12931); assay: Malachite green phosphate assay of TRAP1 ATPase activity; format: biochemical; details: for EC50: concentration for half maximal activation, read-out: Malachite Green Fluor DRC: GeoMean EC50; for Emax: maximal percent activation, read-out: Malachite Green Fluor DRC: Mean Emax
T1 construct: 150 nM Trap1 enzyme was incubated with various concentrations of the test compound
T1 sequence (Q12931 60-704): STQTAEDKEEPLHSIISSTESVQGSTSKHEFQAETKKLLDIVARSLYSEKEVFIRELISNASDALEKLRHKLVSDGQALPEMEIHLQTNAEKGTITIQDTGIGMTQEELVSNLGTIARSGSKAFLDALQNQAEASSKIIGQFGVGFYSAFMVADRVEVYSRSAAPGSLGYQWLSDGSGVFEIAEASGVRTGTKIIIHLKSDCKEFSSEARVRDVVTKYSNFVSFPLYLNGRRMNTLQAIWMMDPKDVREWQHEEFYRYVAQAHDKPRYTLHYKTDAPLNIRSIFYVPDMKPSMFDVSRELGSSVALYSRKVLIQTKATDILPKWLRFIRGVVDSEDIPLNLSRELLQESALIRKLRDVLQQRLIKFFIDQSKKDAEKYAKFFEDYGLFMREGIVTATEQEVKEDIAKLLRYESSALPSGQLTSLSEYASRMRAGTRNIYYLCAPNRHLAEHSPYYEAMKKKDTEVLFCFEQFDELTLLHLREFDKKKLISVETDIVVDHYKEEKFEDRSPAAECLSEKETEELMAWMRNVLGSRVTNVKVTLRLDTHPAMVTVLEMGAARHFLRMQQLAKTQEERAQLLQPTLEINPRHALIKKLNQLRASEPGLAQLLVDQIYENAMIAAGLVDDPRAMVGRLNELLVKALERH
Description: The Potency of test compounds to modulate the ATPase activity of TRAP1 enzyme was evaluated using malachite green phosphatase assay. The assay is based on quantification of the green complex formed between Malachite Green, molybdate and inorganic phosphate generated in the phosphatase reaction. Assays were performed using a Malachite Green assay kit. All the assays were carried out in a 96-well transparent plate. The buffer used was 50 mM HEPES (pH 7.5), 20 mM KCl, 4 mM MgCl2 and 0.05% BSA. 150 nM Trap1 enzyme was incubated with various concentrations of the test compound (0.78 μM-100 μM) at 37° C. for 30 mins. 20 μM ATP was added to each well (except blank wells) to start the reaction and the plate was then incubated at 37° C. for 180 mins. 10 μl of the reaction volume of each sample was then transferred to a white 384-well proxiplate in quadruplets. 2.5 μl of Malachite Green reagent was added to all the wells and the plate was equilibrated for 15 mins. The reaction was stopped by adding 12% H2SO4 and the plate was read for fluorescence at 620 nm (λex=573 nm). The amount of phosphate released was estimated from a phosphate standard curve generated at the same experimental conditions. Emax (Maximal percent activation) and EC50 (concentration of test compound for half maximal activation) were estimated by fitting the dose response data to a sigmoidal curve fitting equation using Graphpad Prism software V.7.0.

TRAP1 enzyme [2] = target: T1, TRAP1 enzyme; assay: ADP Glo assay of TRAP1 ATPase activity; format: biochemical; details: for EC50: concentration for half maximal activation, read-out: ADP GLO DRC: GeoMean EC50; for Emax: maximal percent activation, read-out: ADP GLO DRC: Mean Emax; for activation at 50 µM: 1 h, compound concentration 50 μM, read-out: ADP-Glo Percent Activation at 50 μM
Method in brief: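 ADP-Glo luminescence quantifying ADP from 150 nM TRAP1 preincubated 30 min at 37° C with compound (0.79–100 μM), then 20 μM ATP for 60 min at 37° C. Buffer: 25 mM Pipes pH 7.5, 40 mM KCl, 0.05 mM MgCl2, EGTA, BSA, detergents. ADP from ATP/ADP standard curve; Emax and EC50 from sigmoidal fit.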

Structure (SMILES): COc1ncc(NC(=O)c2ncc(-c3ccccc3)o2)cc1S(=O)(=O)Nc1ccc(Cl)cc1 [compound 535, N-(5-(N-(4-chlorophenyl)sulfamoyl)-6-methoxypyridin-3-yl)-5-phenyloxazole-2-carboxamide]
EC50 (TRAP1 enzyme [1]): 10 to 20 µM | Emax (TRAP1 enzyme [1]): 160 to 199%

Structure (SMILES): COc1ncc(NC(=O)c2cnc(-c3ccccc3)o2)cc1S(=O)(=O)Nc1ccc(C(F)(F)F)cc1 [compound 604, N-(6-methoxy-5-(N-(4-(trifluoromethyl)phenyl)sulfamoyl)pyridin-3-yl)-2-phenyloxazole-5-carboxamide]
EC50 (TRAP1 enzyme [1]): 20 to 100 µM | Emax (TRAP1 enzyme [1]): 160 to 199%

Structure (SMILES): Cc1cccc(C)c1NS(=O)(=O)c1cncc(NC(=O)c2cnc(-c3ccccc3)[nH]2)c1 [compound 592, N-(5-(N-(2,6-dimethylphenyl)sulfamoyl)pyridin-3-yl)-2-phenyl-1H-imidazole-5-carboxamide]
EC50 (TRAP1 enzyme [1]): 20 to 100 µM | Emax (TRAP1 enzyme [1]): 160 to 199%

Structure (SMILES): O=C(Nc1cccc(S(=O)(=O)Nc2ccc(Cl)cc2)n1)c1cnc(-c2ccccc2)[nH]1 [compound 612, N-(6-(N-(4-chlorophenyl)sulfamoyl)pyridin-2-yl)-2-phenyl-1H-imidazole-5-carboxamide]
EC50 (TRAP1 enzyme [1]): 20 to 100 µM | Emax (TRAP1 enzyme [1]): 200 to 300%

Structure (SMILES): COc1ncc(NC(=O)c2ncc(-c3ccccc3)o2)cc1S(=O)(=O)Nc1c(Cl)cccc1Cl [compound 670, N-(5-(N-(2,6-dichlorophenyl)sulfamoyl)-6-methoxypyridin-3-yl)-5-phenyloxazole-2-carboxamide]
EC50 (TRAP1 enzyme [2]): 20 to 100 µM | Emax (TRAP1 enzyme [2]): 160 to 199% | EC50 (TRAP1 enzyme [1]): 20 to 100 µM | Emax (TRAP1 enzyme [1]): 200 to 300%

Structure (SMILES): COCCOc1cc(NS(=O)(=O)c2cc(NC(=O)c3csc(-c4ccccc4)n3)cnc2OC)ccn1 [compound 1760]
EC50 (TRAP1 enzyme [2]): 20 to 100 µM | Emax (TRAP1 enzyme [2]): 119 to 159%

Structure (SMILES): COc1ncc(NC(=O)c2coc(-c3ccccc3)n2)cc1S(=O)(=O)Nc1ncc(Cl)cc1F [compound 1977, N-(5-(N-(5-chloro-3-fluoropyridin-2-yl)sulfamoyl)-6-methoxypyridin-3-yl)-2-phenyloxazole-4-carboxamide]
EC50 (TRAP1 enzyme [2]): 20 to 100 µM | Emax (TRAP1 enzyme [2]): 200 to 300%

Structure (SMILES): COc1ncc(NC(=O)c2ncc(-c3ccccc3)o2)cc1S(=O)(=O)Nc1ccc(C(F)(F)F)cc1 [compound 594, N-(6-methoxy-5-(N-(4-(trifluoromethyl)phenyl)sulfamoyl)pyridin-3-yl)-5-phenyloxazole-2-carboxamide]
EC50 (TRAP1 enzyme [1]): 20 to 100 µM | Emax (TRAP1 enzyme [1]): 119 to 159%

Structure (SMILES): COc1ncc(NC(=O)c2csc(-c3ccccc3)n2)cc1S(=O)(=O)Nc1nnn(Cc2ccccc2)n1 [compound 1912]
EC50 (TRAP1 enzyme [2]): 20 to 100 µM | Emax (TRAP1 enzyme [2]): 200 to 300%

Structure (SMILES): COc1ncc(NC(=O)c2csc(-c3ccccc3)n2)cc1S(=O)(=O)Nc1nc(C(C)(C)C)ns1 [compound 1839]
EC50 (TRAP1 enzyme [2]): 10 to 20 µM | Emax (TRAP1 enzyme [2]): 200 to 300%

Structure (SMILES): COc1ncc(NC(=O)c2csc(-c3ccccc3)n2)cc1S(=O)(=O)Nc1c(C)cnn1C [compound 1729]
EC50 (TRAP1 enzyme [2]): 20 to 100 µM | Emax (TRAP1 enzyme [2]): 119 to 159%

Structure (SMILES): COc1ncc(NC(=O)c2coc(-c3ccccc3)n2)cc1S(=O)(=O)Nc1c(C2CC2)cccc1C1CC1 [compound 2497]
EC50 (TRAP1 enzyme [2]): < 10 µM | Emax (TRAP1 enzyme [2]): 160 to 199%

Structure (SMILES): COc1ncc(NC(=O)c2csc(-c3cccnc3)n2)cc1S(=O)(=O)Nc1ccc(F)c(F)c1C [compound 2390]
EC50 (TRAP1 enzyme [2]): 10 to 20 µM | Emax (TRAP1 enzyme [2]): 200 to 300%

Structure (SMILES): COc1ncc(NC(=O)c2coc(-c3ccccc3)n2)cc1S(=O)(=O)Nc1c(C)cccc1C1CC1 [compound 1986, N-(5-(N-(2-cyclopropyl-6-methylphenyl)sulfamoyl)-6-methoxypyridin-3-yl)-2-phenyloxazole-4-carboxamide]
EC50 (TRAP1 enzyme [2]): < 10 µM | Emax (TRAP1 enzyme [2]): 200 to 300%

Structure (SMILES): COc1ncc(NC(=O)c2csc(-c3ccccc3)n2)cc1S(=O)(=O)Nc1c(C2CC2)cccc1C1CC1 [compound 2499]
EC50 (TRAP1 enzyme [2]): < 10 µM | Emax (TRAP1 enzyme [2]): 160 to 199%

The next lines start with the values.

EC50 (TRAP1 enzyme [2]): 10 to 20 µM | Emax (TRAP1 enzyme [2]): > 300%
Structure (SMILES): COc1ncc(NC(=O)c2cccc(-c3ccnn3C)c2)cc1S(=O)(=O)Nc1c(C)cccc1C [compound 1942, N-(5-(N-(2,6-dimethylphenyl)sulfamoyl)-6-methoxypyridin-3-yl)-3-(1-methyl-1H-pyrazol-5-yl)benzamide]

activation at 50 µM (TRAP1 enzyme [2]): 151 to 180%
Structure (SMILES): COc1ncc(NC(=O)c2nnsc2C)cc1S(=O)(=O)Nc1c(C)cccc1C [compound 2780]

activation at 50 µM (TRAP1 enzyme [2]): 181 to 352%
Structure (SMILES): COc1ncc(NC(=O)c2ccc(NC(C)=O)cc2)cc1S(=O)(=O)Nc1c(C)cccc1C [compound 2746]

activation at 50 µM (TRAP1 enzyme [2]): 151 to 180%
Structure (SMILES): COc1ncc(NC(=O)c2nn(C)c3c2CCC3)cc1S(=O)(=O)Nc1c(C)cccc1C [compound 2612]

EC50 (TRAP1 enzyme [2]): < 10 µM | Emax (TRAP1 enzyme [2]): 200 to 300%
Structure (SMILES): COc1ncc(NC(=O)c2c[nH]c(-c3ccccc3)n2)cc1S(=O)(=O)Nc1c(C)cccc1C [compound 2092]

activation at 50 µM (TRAP1 enzyme [2]): 151 to 180%
Structure (SMILES): COc1ccc(C(=O)Nc2cnc(OC)c(S(=O)(=O)Nc3c(C)cccc3C)c2)cn1 [compound 2556]

activation at 50 µM (TRAP1 enzyme [2]): 120 to 150%
Structure (SMILES): COc1ncc(NC(=O)c2cn(C)nc2C)cc1S(=O)(=O)Nc1c(C)cccc1C [compound 2628]

activation at 50 µM (TRAP1 enzyme [2]): 151 to 180%
Structure (SMILES): COc1ncc(NC(=O)c2cc(C(F)(F)F)n[nH]2)cc1S(=O)(=O)Nc1c(C)cccc1C [compound 2695]

activation at 50 µM (TRAP1 enzyme [2]): 120 to 150%
Structure (SMILES): COc1ncc(NC(=O)c2cc(C(F)(F)F)nn2C)cc1S(=O)(=O)Nc1c(C)cccc1C [compound 2614]

activation at 50 µM (TRAP1 enzyme [2]): 120 to 150%
Structure (SMILES): COc1ncc(NC(=O)c2ccn(C)n2)cc1S(=O)(=O)Nc1c(C)cccc1C [compound 2586]

activation at 50 µM (TRAP1 enzyme [2]): 120 to 150%
Structure (SMILES): COc1ncc(NC(=O)c2ccon2)cc1S(=O)(=O)Nc1c(C)cccc1C [compound 2741]

activation at 50 µM (TRAP1 enzyme [2]): 120 to 150%
Structure (SMILES): COc1ncc(NC(=O)c2ccc(S(C)(=O)=O)cc2)cc1S(=O)(=O)Nc1c(C)cccc1C [compound 2580]

EC50 (TRAP1 enzyme [2]): < 10 µM | Emax (TRAP1 enzyme [2]): 119 to 159%
Structure (SMILES): COc1ncc(NC(=O)c2csc(-c3ccccc3)n2)cc1S(=O)(=O)Nc1c(C)cc(F)cc1C [compound 1389, N-(5-(N-(4-fluoro-2,6-dimethylphenyl)sulfamoyl)-6-methoxypyridin-3-yl)-2-phenylthiazole-4-carboxamide]

EC50 (TRAP1 enzyme [2]): < 10 µM | Emax (TRAP1 enzyme [2]): 160 to 199%
Structure (SMILES): COc1ncc(NC(=O)c2ncc(-c3ccccc3)o2)cc1S(=O)(=O)Nc1c(C)cccc1C [compound 2470]

activation at 50 µM (TRAP1 enzyme [2]): 120 to 150%
Structure (SMILES): COc1ncc(NC(=O)c2cnsc2)cc1S(=O)(=O)Nc1c(C)cccc1C [compound 2636]

activation at 50 µM (TRAP1 enzyme [2]): 151 to 180%
Structure (SMILES): COc1ncc(NC(=O)c2ccc(NC(=O)C(C)(C)C)cc2)cc1S(=O)(=O)Nc1c(C)cccc1C [compound 2699]

activation at 50 µM (TRAP1 enzyme [2]): 151 to 180%
Structure (SMILES): COc1ncc(NC(=O)c2c(C)noc2C)cc1S(=O)(=O)Nc1c(C)cccc1C [compound 2524]

activation at 50 µM (TRAP1 enzyme [2]): 181 to 352%
Structure (SMILES): COc1ncc(NC(=O)c2ccc(OC3COC3)cc2)cc1S(=O)(=O)Nc1c(C)cccc1C [compound 2568]
